Where a name gives a salt, the structure may show the parent alone.
Tests used:
[1] = Salt preparation: isolation of solid salts of the pyrrolidine compound; type: physicochemical; details: acid plus free base in IPA, filtration, MTBE
[2] = Chemical stability by HPLC; type: physicochemical
Procedure: In addition, the solutions before spraying and the spray dried product were analyzed for purity by HPLC using the following method. A Waters Symmetry C18 (3.0×150 mm, 3.5 um) column was used. […] Column temperature was 60° C., and the detection wavelength was 210 nm. The injection volume was 15 μL; flow rate was 1.0 mL/minute for a run time of 70 minutes. The gradient was as follows: Chemical Stability. Chemical stability was determined using HPLC. […] The chemical stability of the tartrate salt and the free base was also determined after one and three months at 25° C., 40° C. and 60° C.

12 Month Stability Study = type: physicochemical; design: Water: unit not given beside the values; details: for decomposition on storage: 25° C.
[3] = Chemical stability by HPLC; type: physicochemical; details: 45% RH for two months
[4] = Physical stability in humidity chambers
Description: Physical Stability in Humidity Chambers. […] Samples were weighed hourly at first, and then on daily intervals.

[5] = 3 months at 40° C., listed as Tartrate
[6] = 12 months, T = 25° C., RH = 60%

**Q.** Which “Comments (outcome of salt preparation)” value ([1]; listed as D-Tartaric Acid) does the source give for `O=C(O)[C@@H](O)[C@H](O)C(=O)O` [D-tartrate] here?
**A.** Good filterable solid

**Q.** What does the source list for `O=C(CN[C@@H]1CCNC1)N1CCC[C@H]1B(O)O` [Free Base, (2R)-1-{7-[(9R)-pyrrolidin-9-ylamino]-acetyl}-pyrrolidine-2-boronic acid]?
**A.** Assay (%) ([2]; 1 month at 40° C.): 97%; Total Impurities (%) ([2]; 1 month at 40° C.): 15.4%; Assay (%) ([2]; 3 months at 40° C.): 50%; Total Impurities (%) ([2]; 3 months at 40° C.): 29.6%; Assay (%) ([2]; Initial): 96%; Total Impurities (%) ([2]; Initial): 7.6%

**Q.** Which results are given for `O=C(CN[C@@H]1CCNC1)N1CCC[C@H]1B(O)O` [L-tartrate salt, (2R)-1-{7-[(9R)-pyrrolidin-9-ylamino]-acetyl}-pyrrolidine-2-boronic acid]?
**A.** Assay (%) ([2]; 1 month at 60° C.): 100%; Total Impurities (%) ([2]; 1 month at 60° C.): 5.8%; Assay (%) ([2]; 3 months at 25° C.): 99%; Total Impurities (%) ([2]; 3 months at 25° C.): 5.7%; Assay (%) [2, 5]: 97%; Total Impurities (%) [2, 5]: 5.9%; Assay (%) ([2]; 3 months at 60° C.): 92%; Total Impurities (%) ([2]; 3 months at 60° C.): 7.4%; Assay (%) ([2]; Initial, listed as Tartrate): 99%; Total Impurities (%) ([2]; Initial, listed as Tartrate): 6.5%; Assay (HPLC) (12 Month Stability Study; 1 month, T = 5° C., RH = N/A): 105.7; Purity (HPLC) (12 Month Stability Study; 1 month, T = 5° C., RH = N/A): 98.1; Water (12 Month Stability Study; 1 month, T = 5° C., RH = N/A): 9.8; Assay (HPLC) (12 Month Stability Study; 1 month, T = 25° C., RH = 60%): 105.7; Purity (HPLC) (12 Month Stability Study; 1 month, T = 25° C., RH = 60%): 98.1; Water (12 Month Stability Study; 1 month, T = 25° C., RH = 60%): 9.9; Assay (HPLC) (12 Month Stability Study; 1 month, T = 40° C., RH = 75%): 106.0; Purity (HPLC) (12 Month Stability Study; 1 month, T = 40° C., RH = 75%): 98.2; Water (12 Month Stability Study; 1 month, T = 40° C., RH = 75%): 10.0; Assay (HPLC) (12 Month Stability Study; 3 months, T = 5° C., RH = N/A): 106.2; Purity (HPLC) (12 Month Stability Study; 3 months, T = 5° C., RH = N/A): 98.0; Water (12 Month Stability Study; 3 months, T = 5° C., RH = N/A): 9.6; Assay (HPLC) (12 Month Stability Study; 3 months, T = 25° C., RH = 60%): 106.7; Purity (HPLC) (12 Month Stability Study; 3 months, T = 25° C., RH = 60%): 98.1; Water (12 Month Stability Study; 3 months, T = 25° C., RH = 60%): 9.4; Assay (HPLC) (12 Month Stability Study; 3 months, T = 40° C., RH = 75%): 105.3; Purity (HPLC) (12 Month Stability Study; 3 months, T = 40° C., RH = 75%): 97.9; Water (12 Month Stability Study; 3 months, T = 40° C., RH = 75%): 9.2; decomposition on storage (12 Month Stability Study; 6 months at 75% RH): no detectable decomposition; Assay (HPLC) (12 Month Stability Study; 6 months, T = 5° C., RH = N/A): 104.6; Purity (HPLC) (12 Month Stability Study; 6 months, T = 5° C., RH = N/A): 97.9; Water (12 Month Stability Study; 6 months, T = 5° C., RH = N/A): 8.9; Assay (HPLC) (12 Month Stability Study; 6 months, T = 25° C., RH = 60%): 105.9; Purity (HPLC) (12 Month Stability Study; 6 months, T = 25° C., RH = 60%): 97.9; Water (12 Month Stability Study; 6 months, T = 25° C., RH = 60%): 9.3; Assay (HPLC) (12 Month Stability Study; 6 months, T = 40° C., RH = 75%): 105.6; Purity (HPLC) (12 Month Stability Study; 6 months, T = 40° C., RH = 75%): 97.7; Water (12 Month Stability Study; 6 months, T = 40° C., RH = 75%): 9.5; Assay (HPLC) (12 Month Stability Study; 9 months, T = 5° C., RH = N/A): 106.7; Purity (HPLC) (12 Month Stability Study; 9 months, T = 5° C., RH = N/A): 97.8; Water (12 Month Stability Study; 9 months, T = 5° C., RH = N/A): 9.1; Assay (HPLC) (12 Month Stability Study; 9 months, T = 25° C., RH = 60%): 107.3; Purity (HPLC) (12 Month Stability Study; 9 months, T = 25° C., RH = 60%): 97.8; Water (12 Month Stability Study; 9 months, T = 25° C., RH = 60%): 9.0; decomposition on storage (12 Month Stability Study; 12 months at 60% RH): no detectable decomposition; Assay (HPLC) (12 Month Stability Study; 12 months, T = 5° C., RH = N/A): 107.8; Purity (HPLC) (12 Month Stability Study; 12 months, T = 5° C., RH = N/A): 98.0; Water (12 Month Stability Study; 12 months, T = 5° C., RH = N/A): 9.3; Assay (HPLC) (12 Month Stability Study; [6]): 107.7; Purity (HPLC) (12 Month Stability Study; [6]): 97.9; Water (12 Month Stability Study; [6]): 9.3; change in chemical purity (12 Month Stability Study; any of the conditions tested, 12 month study): substantially no change; Assay (HPLC) (12 Month Stability Study; time = 0): 105.1; Purity (HPLC) (12 Month Stability Study; time = 0): 98.3; Water (12 Month Stability Study; time = 0): 10.4; solubility in water and alcohols: > 2000 mg/mL; change in the purity (HPLC) [3]: Little or no change; hygroscopicity [4]: moderately hygroscopic; processability of the solid ([4]; 63% relative humidity and room temperature for two months): remained a processable solid; physical behaviour of the solid at ambient conditions ([4]; ambient conditions): remains a processable solid; flow properties ([4]; open container, room temperature, 45% RH, two months): maintained good flow properties; processability of the solid ([4]; several days at ambient temperature, relative humidity of 75%): remained a processable solid

**Q.** Which “Comments (outcome of salt preparation)” value [1] does the source give for citrate here?
**A.** Good filterable solid

**Q.** What about the “stability at 63% RH” value ([4]; 63% RH) of the same molecule?
**A.** stable

**Q.** And the “stability when submitted to 75% relative humidity” value ([4]; 75% RH)?
**A.** not stable

From patent US8299271B2, “Solid tartrate salts of DPP-IV inhibitors” (priority 2006, dated 2012)
